From ChEMBL document CHEMBL3868620, “Synthesis, DNA binding and antitrypanosomal activity of benzimidazole analogues of DAPI” (Bioorg Med Chem Lett, 2016) come the findings set out here.

pIC50: −log10 of the molar value.

A word on the ΔTm: it is the shift of the melting midpoint relative to a reference. As a reminder, the pIC50 is the IC50 on a negative log10 scale, so that one unit is a factor of ten. As a reminder, the IC50 is the concentration that gives 50% inhibition.

A short description of data set [1]: Selectivity index, ratio OF IC50 for rat L6 cells to IC50 for bloodstream form of Trypanosoma brucei rhodesiense STIB900. It counts as functional.
Data set [2] can be described thus: Binding affinity to poly(dA-dT)n DNA (unknown origin) assessed as change in melting temperature at 0.3 molar ratio of compound:DNA by spectrophotometric analysis.
Data set [3] concerns Trypanosoma brucei rhodesiense. The experiment in a line: Antitrypanosomal activity against bloodstream form of Trypanosoma brucei rhodesiense STIB900 after 70 hrs by Alamar blue assay. To be noted: STIB900, 70 h. It counts as functional. On the technique in general: Resazurin is reduced to fluorescent resorufin, in cell work by metabolically active cells.
The nature of data set [4]: Cytotoxicity against rat L6 cells assessed as reduction in cell viability after 70 hrs by Alamar blue assay. The data set is classed as toxicity.

As for `N=C(N)c1ccc(-c2nc3ccc(C(=N)N)cc3n2O)cc1`, the “Ratio IC50” value in data set [1] is above 25. Further, the ΔTm in data set [2] stood at 1.1 °C. Besides, the pIC50 in data set [3] is 5.07. Also, in data set [4], the half-inhibitory concentration (IC50) at 70 h was above 210000 nM.
In the same order, the values of `Cn1c(-c2ccc(C(=N)N)cc2)nc2cc(C(=N)N)ccc21` are above 11266, 8 °C, 7.82 and above 169000 nM.
Consider `N=C(N)c1ccc(-c2nc3cc(C(=N)N)ccc3n2C2CCCCC2)cc1`, for which, in data set [1], the “Ratio IC50” value is recorded as above 306. The ΔTm in data set [2] is 2 °C. The pIC50 in data set [3] was 6.28. Besides, in data set [4], the IC50 at 70 h is above 162000 nM.
In the case of `N=C(N)c1ccc(-c2nc3cc(C(=N)N)ccc3[nH]2)cc1`, the “Ratio IC50” value in data set [1] was determined as 848. In addition, the ΔTm in data set [2] was 24.7 °C. In addition, in data set [3], the pIC50 was 7.51. The IC50 at 70 h in data set [4] was 26300 nM.
On to `N=C(N)c1ccc(-c2cc3ccc(C(=N)N)cc3[nH]2)cc1` [DAPI], for which the “Ratio IC50” value in data set [1] is reported as 48. The ΔTm in data set [2] is above 27 °C. In addition, the IC50 at 70 h in data set [4] came to 860 nM.
As for `CCCn1c(-c2ccc(C(=N)N)cc2)nc2cc(C(=N)N)ccc21`, the “Ratio IC50” value in data set [1] is above 4419. Moreover, in data set [2], the ΔTm was determined as 2.5 °C. In data set [3], this compound showed a pIC50 of 7.51. Moreover, in data set [4], the IC50 at 70 h is above 137000 nM.
On the same counts, the results for `CCn1c(-c2ccc(C(=N)N)cc2)nc2cc(C(=N)N)ccc21` are above 3234, 5.5 °C, 7.19 and above 207000 nM.
On the same counts, the results for `c1cc2nc(-c3ccc(C4=NCCN4)s3)[nH]c2cc1C1=NCCN1` are 1925, 26 °C, 7.17 and 129000 nM.
As for `N=C(N)c1ccc2nc(-c3ccc(C(=N)N)s3)[nH]c2c1`, the “Ratio IC50” value in data set [1] was found to be 1405. Moreover, in data set [2], the ΔTm worked out at 25.2 °C. The pIC50 in data set [3] was 7.72. For the same compound, the IC50 at 70 h in data set [4] worked out at 26700 nM.
On the same counts, the results for `N=C(N)c1ccc2nc(-c3ccc(C(=N)N)o3)[nH]c2c1` are 3229, 10.1 °C, 7.32 and 150000 nM.
